Laboratory results reported in patent US10800741B2 (ANCUREALL PHARMACEUTICAL (SHANGHAI) CO., LTD., priority 2017, dated 2020).
pIC50: −log10 of the molar value.

Experiments:
Type in all cases: cell-based, Human
H1581 (FGFR1 amp) = test: In vitro growth inhibition of H1581 tumor cells (MTT/CCK8); settings: Homo sapiens, NCI-H1581; in vitro growth inhibition (or induction of apoptosis), cells cultured 3 to 5 days, MTT (CCK8); read-out: IC50 H1581 (FGFR1 amp)
Source text: (§1) Tumor cell lines are an effective model for studying in vitro tumor growth inhibition. In the present invention, a representative tumor cell line was selected to determine the cell growth inhibition activity of the present compound. All cell lines used were from ATCC, DSMZ, and cell banks of the Chinese Academy of Sciences. Cell culture conditions and methods were in accordance with the requirements of each cell line. Cells were subcultured in vitro for no more than 3 generations each time, and as required, single-clone purification and identification of cell lines could be carried out.
(§2) The cell culture media used were RPMI1640 (Gibco), DMEM (Gibco), MEM (Gibco), L15 (Gibco), IMDM (Gibco), McCOY'S5A, and William's (Gibco). 5-20% fetal bovine serum (Gibco), 1% double antibiotic, 2 mM glutamine, or 1 mM sodium pyruvate were added. The names, species, major gene characteristics, culture media and cell sources of the cell lines used are shown in table 1, wherein “amp” refers to gene amplification. “+++” refers to gene overexpression. The main genetic characteristics of cells were obtained from the COSMIC Cell Lines Project and related research papers, respectively.
(§3) Adherent cells were digested with 0.25% trypsin-EDTA (Gibco). Suspension culture cells were collected by centrifugation (1700 rpm, 3 minutes). The supernatant was discarded and the cells were counted. According to each cell growth cycle, different concentrations of cells were prepared (5˜10×10^4 cells per ml), and inoculated to 96-well plates (Corning), with 100 μl per well, and incubated overnight at 37° C., 5% CO2. The next day, the test compound was added to the cultured cells (2 wells in parallel). The final concentration of the solvent was less than 1/1,000. The cells were further cultured for 3 to 5 days and assayed by MTT.
(§4) The compound was stored at a concentration of 10 mM at −20° C. and diluted to 2- or 10-fold series prior to use. BGJ398 and AC220 were synthesized according to the methods of WO2006420A1 and US2007232604A1, respectively.
(§5) The adherent cells were taken out from the cell culture medium, and immediately added to a freshly prepared complete medium containing 10% CCK8 (5% FBS), 100 ul per hole. The suspended cells were directly added to a CCK8 reagent until reaching a final concentration of 10% and cultured for 1 to 4 hours.
(§6) T=optical density of drug-treated cell wells−optical density of blank control wells; T0=optical density of cell wells before drug treatment−optical density of blank control wells; C=optical density of solvent control wells−optical density of blank control wells. […] The experiments were repeated 1 to 3 times and a statistical analysis of data was conducted.

MOLM-13 (FLT3-ITD) = test: In vitro growth inhibition of MOLM-13 tumor cells (MTT/CCK8); settings: Homo sapiens, MOLM-13; in vitro growth inhibition (or induction of apoptosis), cells cultured 3 to 5 days, MTT (CCK8); read-out: IC50 MOLM-13 (FLT3-ITD)
Source text: as §1, §2, §3, §4, §5, §6

KATO III (FGFR2 amp) = test: In vitro growth inhibition of KATO III tumor cells (MTT/CCK8); settings: Homo sapiens, KATO III; in vitro growth inhibition (or induction of apoptosis), cells cultured 3 to 5 days, MTT (CCK8); read-out: IC50 KATO III (FGFR2 amp)
Source text: as §1, §2, §3, §4, §5, §6

Row | Compound | pIC50 (H1581 (FGFR1 amp)) | pIC50 (MOLM-13 (FLT3-ITD)) | pIC50 (KATO III (FGFR2 amp))
1 | COCCOc1cc2nccc(Oc3ccc(NC(=O)Nc4cc(C(C)(C)C)n[nH]4)cc3)c2cc1NC(C)=O [Compound 116, N-[4-{4-[3-(5-tert-butyl-2H-pyrazol-3-yl)-ureido]-phenoxy}-7-(2-methoxy-ethoxy)-quinolin-6-yl]-acetamide] | 8.05 | 10.02 | 8.71
2 | COCCOc1cc2nccc(Oc3ccc(NC(=O)Nc4cc(C(C)(C)C)nn4C)cc3)c2cc1NC(C)=O [Compound 117, N-[4-{4-[3-(5-tert-butyl-2-methyl-2H-pyrazol-3-yl)-ureido]-phenoxy}-7-(2-methoxy-ethoxy)-quinolin-6-yl]-acetamide] | 8.01 | 9.60 | 9.77
3 | COCCOc1cc2nccc(Oc3ccc(NC(=O)Nc4cc(C(C)(C)C)nn4C4CC4)cc3)c2cc1NC(C)=O [Compound 118] | 7.71 | 9.96 | 9.42
4 | COCCOc1cc2nccc(Oc3ccc(NC(=O)Nc4cc(C(C)(C)C)nn4C4CCN(C)CC4)cc3)c2cc1NC(C)=O [Compound 121] | 7.71 | 9.21 | 9.30
5 | COCCOc1cc2nccc(Oc3ccc(NC(=O)Nc4cc(C(C)(C)C)nn4C4CCN(C)CC4)c(Cl)c3)c2cc1NC(C)=O [Compound 126, N-[4-(4-{3-[5-tert-butyl-2-(1-methyl-piperidin-4-yl)-2H-pyrazol-3-yl]-ureido}-3-chloro-phenoxy)-7-(2-methoxy-ethoxy)-quinolin-6-yl]-acetamide] | 8.85 | 8.12 | 9.39
6 | COCCOc1cc2nccc(Oc3ccc(NC(=O)Nc4cc(C(C)(C)C)n[nH]4)c(F)c3)c2cc1NC(C)=O [Compound 128, N-[4-{4-[3-(5-tert-butyl-2H-pyrazol-3-yl)-ureido]-3-fluoro-phenoxy}-7-(2-methoxy-ethoxy)-quinolin-6-yl]-acetamide] | 8.70 | 8.41 | 10.00
7 | COCCCOc1cc2nccc(Oc3ccc(NC(=O)Nc4cc(C(C)(C)C)n[nH]4)c(Cl)c3)c2cc1NC(C)=O [Compound 129, N-[4-{4-[3-(5-tert-butyl-2H-pyrazol-3-yl)-ureido]-3-chloro-phenoxy}-7-(3-methoxy-propoxy)-quinolin-6-yl]-acetamide] | 8.32 | 8.31 | 9.47
8 | CC(=O)Nc1cc2c(Oc3ccc(NC(=O)Nc4cc(C(C)(C)C)n[nH]4)c(Cl)c3)ccnc2cc1OCCCN1CCN(C)CC1 [Compound 130, N-{4-{4-[3-(5-tert-butyl-2H-pyrazol-3-yl)-ureido]-3-chloro-phenoxy}-7-[3-(4-methy-piperazin-1-yl)-propoxy]-quinolin-6-yl}-acetamide] | 8.95 | 8.30 | 9.27
9 | COCCOc1cc2nccc(Oc3ccc(NC(=O)Nc4cc(C(C)(C)C)n[nH]4)c(C)c3)c2cc1NC(C)=O [Compound 133, N-[4-{4-[3-(5-tert-butyl-2H-pyrazol-3-yl)-ureido]-3-methyl-phenoxy}-7-(2-methoxy-ethoxy)-quinolin-6-yl]-acetamide] | 8.09 | 8.95 | 8.81
10 | COCCOc1cc2nccc(Oc3ccc(NC(=O)Nc4cc(C(C)(C)C)nn4CCN4CCOCC4)cc3Cl)c2cc1NC(C)=O [Compound 137, N-[4-(4-{3-[5-tert-butyl-2-(2-morpholin-4-yl-ethyl)-2H-pyrazol-3-yl]-ureido}-2-chloro-phenoxy)-7-(2-methoxy-ethoxy)-quinolin-6-yl]-acetamide] | 7.39 | 9.47 | 8.92
11 | CC(C)(C)c1cc(NC(=O)Nc2ccc(Oc3ccnc4cc(OCCCN5CCOCC5)c(C(N)=O)cc34)cc2Cl)[nH]n1 [Compound 138, 4-{4-[3-(5-tert-butyl-2H-pyrazol-3-yl)-ureido]-3-chloro-phenoxy}-7-(3-morpholin-4-yl-propoxy)-quinolin-6-carboxamide] | 7.01 | 7.67 | 7.74

Continued by rising pIC50 (H1581 (FGFR1 amp)), values first:

Row | pIC50 (H1581 (FGFR1 amp)) | pIC50 (MOLM-13 (FLT3-ITD)) | pIC50 (KATO III (FGFR2 amp)) | Compound
12 | 7.10 | > 10.30 | 8.16 | COCCOc1cc2nccc(Oc3ccc(NC(=O)Nc4cc(C(C)(C)C)nn4CCN(C)C)cc3)c2cc1NC(C)=O [Compound 119, N-[4-(4-{3-[5-tert-butyl-2-(2-dimethylamino-ethyl)-2H-pyrazol-3-yl]-ureido}-phenoxy)-7-(2-methoxyethoxy)-quinolin-6-yl]-acetamide]
13 | 7.10 | 9.26 | 7.87 | COCCOc1cc2nccc(Oc3ccc(NC(=O)Nc4cc(C(C)(C)C)nn4C4CCNCC4)cc3)c2cc1NC(C)=O [Compound 120, N-[4-{4-[3-(5-tert-butyl-2-piperidin-4-yl-2H-pyrazol-3-yl)-ureido]-phenoxy}-7-(2-methoxy-ethoxy)-quinolin-6-yl]-acetamide]
14 | 7.16 | 9.22 | 9.57 | COCCOc1cc2nccc(Oc3ccc(NC(=O)Nc4cc(C(C)(C)C)nn4CCN4CCOCC4)cc3)c2cc1NC(C)=O [Compound 122]
15 | 7.41 | 10.30 | 9.40 | COCCOc1cc2nccc(Oc3ccc(NC(=O)Nc4cc(C(C)(C)C)nn4CCN4CCOCC4)cc3F)c2cc1NC(C)=O [Compound 136, N-[4-(4-{3-[5-tert-butyl-2-(2-morpholin-4-yl-ethyl)-2H-pyrazol-3-yl]-ureido}-2-fluoro-phenoxy)-7-(2-methoxy-ethoxy)-quinolin-6-yl]-acetamide]
16 | 7.71 | 7.83 | 7.94 | CC(=O)Nc1cc2c(Oc3ccc(NC(=O)Nc4cc(C(C)(C)C)n[nH]4)c(Cl)c3)ccnc2cc1OCCO [Compound 131]
17 | 7.71 | 9.96 | 9.66 | COCCOc1cc2nccc(Oc3ccc(NC(=O)Nc4cc(C(C)(C)C)nn4C)cc3Cl)c2cc1NC(C)=O [Compound 135, N-[4-{4-[3-(5-tert-butyl-2-methyl-2H-pyrazol-3-yl)-ureido]-2-chloro-phenoxy}-7-(2-methoxy-ethoxy)-quinolin-6-yl]-acetamide]
18 | 7.91 | > 10.30 | 9.52 | COCCOc1cc2nccc(Oc3ccc(NC(=O)Nc4cc(C(C)(C)C)nn4C4CC4)cc3F)c2cc1NC(C)=O [Compound 134]
19 | 8.04 | 8.91 | > 10.30 | COCCOc1cc2nccc(Oc3ccc(NC(=O)Nc4cc(C(C)(C)C)nn4CCN4CCOCC4)c(Cl)c3)c2cc1NC(C)=O [Compound 123, N-[4-(4-{3-[5-tert-butyl-2-(2-morpholin-4-yl-ethyl)-2H-pyrazol-3-yl]-ureido}-3-chloro-phenoxy)-7-(2-methoxy-ethoxy)-quinolin-6-yl]-acetamide]
20 | 8.34 | 9.00 | 9.51 | COCCOc1cc2nccc(Oc3ccc(NC(=O)Nc4cc(C(C)(C)C)nn4C)c(Cl)c3)c2cc1NC(C)=O [Compound 124, N-[4-{4-[3-(5-tert-butyl-2-methyl-2H-pyrazol-3-yl)-ureido]-3-chloro-phenoxy}-7-(2-methoxy-ethoxy)-quinolin-6-yl]-acetamide]
21 | 8.41 | 9.01 | 8.87 | CC(=O)Nc1cc2c(Oc3ccc(NC(=O)Nc4cc(C(C)(C)C)n[nH]4)c(Cl)c3)ccnc2cc1OCCN1CCOCC1 [Compound 132, N-[4-{4-[3-(5-tert-butyl-2H-pyrazol-3-yl)-ureido]-3-chloro-phenoxy}-7-(2-morpholin-4-yl-ethoxy)-quinolin-6-yl]-acetamide]
22 | 8.46 | 8.01 | 8.94 | CN1CCN(CCCOc2cc3nccc(Oc4ccc(NC(=O)Nc5cc(C(C)(C)C)nn5C5CCCC5)c(Cl)c4)c3cc2C(N)=O)CC1 [Compound 139]
23 | 8.90 | 8.59 | 9.57 | COCCOc1cc2nccc(Oc3ccc(NC(=O)Nc4cc(C(C)(C)C)nn4CCN(C)C)c(Cl)c3)c2cc1NC(C)=O [Compound 127, N-[4-{4-[3-(5-tert-butyl-2-dimethylamino-ethyl-2H-pyrazol-3-yl)-ureido]-3-chloro-phenoxy}-7-(2-methoxy-ethoxy)-quinolin-6-yl]-acetamide]
